Laboratory results taken from article PMC10326142 (Cancer Chemotherapy and Pharmacology, 2023).
“And” between values parts separate entries of the source, which are not always exact repeats. Identical values can stand only once. Like-named read-outs stand apart in the source and are kept apart here. Each block holds one molecule with its values, some of them ahead of it.

Columns and labels:
P-glycoprotein (P-gp) = tested on: P-glycoprotein (P-gp); set-up: method as in PMID 34664792; settings: digoxin = P-gp substrate; cited from earlier work
[1] = Plasma pharmacokinetics of neratinib and trametinib co-administered, cycle 1 day 15 (LC/MS, noncompartmental); assay type: in vivo, human; settings: for Tmax / Ctau or C24 (trough concentration) / Half-life: plasma; for Ctau or C24 (trough concentration): mean (range) in Table 4; for Oral CLss (oral clearance at steady state): mean (range) in Table 4, mean ± spread in text
[2] = tested on: patients with solid tumors; set-up: method as in Wong et al 27; settings: monotherapy 180mg, N=6; cell as count (percent), ref Wong et al 27; cited from earlier work
[3] = cited from earlier work
patients = settings: cited from earlier work
[4] = co-administered at dose level minus 1 (160 mg neratinib daily with 1 mg trametinib 5 days on and 2 days off), cycle 1 day 15, 8 patients
[5] = single agent trametinib 2 mg, 13 patients, mean (range), ref Infante et al. 32
[6] = single agent trametinib 2.5 mg, 16 patients, mean (range), ref Infante et al. 32
[7] = single agent trametinib 3 mg, 16 patients, mean (range), ref Infante et al. 32
[8] = monotherapy 1mg, N=2, ref Infante et al 32
[9] = monotherapy 2mg, N=70, cell as count (percent), ref Infante et al 32

changes in neratinib PKs compared to existing single agent PK data (in words) ([1]; PK cohort, co-administered with trametinib): no observed changes
Tmax ([1]; co-administered at dose level minus 1 (160 mg neratinib daily with 1 mg trametinib 5 days on and 2 days off), cycle 1 day 15, 8 patients, mean (range)): 5.8 (3–8) h
Ctau or C24 (trough concentration) [1, 4]: 43.99 (3.4–93) ng/mL
Oral CLss (oral clearance at steady state) [1, 4]: 76.7 ± 16.9 L/h
Oral CLss (oral clearance at steady state) ([1]; co-administered at dose level minus 1 (160 mg neratinib daily with 1 mg trametinib 5 days on and 2 days off), cycle 1 day 15, 8 patients, listed as Neratinib): 76.7 (56.5–93.5) L/h
AR (accumulation ratio) ([1]; co-administered at dose level minus 1 (160 mg neratinib daily with 1 mg trametinib 5 days on and 2 days off), day 15, 8 patients, mean (range)): 1.67 (1.19–2.16)
Half-life ([1]; human, oral): 18 h
Tmax ([1]; human, oral, read-out: Tmax): ~6 h
SMILES: CCOc1cc2ncc(C#N)c(Nc3ccc(OCc4ccccn4)c(Cl)c3)c2cc1NC(=O)/C=C/CN(C)C [neratinib]
increase of digoxin AUC (P-glycoprotein (P-gp)): 32%
increase of digoxin plasma concentrations (Cmax) (P-glycoprotein (P-gp)): 54%
Grade > 3 TRAE: Diarrhea [2]: 1 (17)
Grade > 3 TRAE: Fatigue [2]: 1 (17)
Grade > 3 TRAE: Nausea [2]: 0
Grade > 3 TRAE: Rash [2]: 0
Grade > 3 TRAE: Vomiting [2]: 0
TRAE of all grades: Anorexia [2]: 1 (17)
TRAE of all grades: Diarrhea [2]: 6 (100)
TRAE of all grades: Fatigue [2]: 4 (67)
TRAE of all grades: Nausea [2]: 3 (50)
TRAE of all grades: Rash [2]: 1 (17)
TRAE of all grades: Vomiting [2]: 2 (33)

Ctau or C24 (trough concentration) [1, 4]: 27.8 (8.5–42.2) ng/mL
Oral CLss (oral clearance at steady state) [1, 4]: 1.55 ± 0.63 L/h and 1.55 L/h
Oral CLss (oral clearance at steady state) ([1]; co-administered at dose level minus 1 (160 mg neratinib daily with 1 mg trametinib 5 days on and 2 days off), cycle 1 day 15, 8 patients, listed as Trametinib): 1.55 (0.95–2.4) L/h
Half-life ([1]; human, oral): 52 h
Tmax ([1]; human, oral, read-out: Tmax): 5.6 h
trametinib clearance when co-administered with neratinib (in words) ([1]; vs published single agent data): significantly reduced
SMILES: CC(=O)Nc1cccc(-n2c(=O)n(C3CC3)c(=O)c3c(Nc4ccc(I)cc4F)n(C)c(=O)c(C)c32)c1 [trametinib]
oral clearance ([3]; published single agent data): 3.81 L/h
Cmax [3, 5]: 22.2 (14–32·9) ng/mL
Ctau or C24 [3, 5]: 12.1 (8.26–16.9) ng/mL
Half-life [3, 5]: 57.6 (4·01–210) h
AUC0-24 [3, 6]: 410 (215–865) ng*h/mL
Ctau or C24 [3, 6]: 15.1 (6.86–40.5) ng/mL
Half-life [3, 6]: 90.2 (58.4–183) h
AUC0-24 [3, 7]: 540 (261–968) ng*h/mL
Cmax [3, 7]: 33.4 (15.6–60.9) ng/mL
Ctau or C24 [3, 7]: 17.9 (7.77–35.5) ng/mL
Half-life [3, 7]: 86.1 (15.1–291) h
Tmax [3, 7]: 2.05 (0.5–10.0) h
Grade > 3 TRAE: Fatigue (patients; [8]): 0
Grade > 3 TRAE: Nausea (patients; [8]): 0
TRAE of all grades: Mucositis (patients; [9]): 3 (4)
TRAE of all grades: Nausea (patients; [9]): 18 (26)
TRAE of all grades: Vomiting (patients; [9]): 9 (13)
